For data set [1], the target named is T1, Metabotropic glutamate receptor 2 (Rattus norvegicus, UniProt P31421). As to the kind of experiment: Antagonist activity at rat mGluR2 assessed as blockade of (1S,3R)-ACPD-induced inhibition of forskolin-stimulated cAMP production. It is filed as functional. (cAMP levels reflect the balance of adenylyl cyclase and phosphodiesterase activity.)
Data set [2] deals with T1, Metabotropic glutamate receptor 2. As to the kind of experiment: Displacement of [3H]LY354740 from rat mGluR2. (In a radioligand displacement assay an active substance lowers the binding of a labelled ligand.)
Data set [3] concerns the target Metabotropic glutamate receptor 3 (Rattus norvegicus, UniProt P31422). As to the kind of experiment: Antagonist activity at rat mGluR3 expressed in CHO cells assessed as inhibition of glutamate-induced GIRK current. It is filed as functional, cell-based.
Data set [4] in a line: Ratio of drug level in brain to plasma at 10 mg/kg, po after 1.5 hrs. It is filed as ADME, organism-based. Details: dose 10 mg/kg, route oral. To be noted: rat.
In data set [5] the target is T1, Metabotropic glutamate receptor 2. As to the kind of experiment: Antagonist activity at rat mGluR2 expressed in CHO cells assessed as inhibition of glutamta-induced GIRK current. The format is functional, cell-based.
Data set [6] is described as follows: Drug level in rat brain at 10 mg/kg, po after 1.5 hrs. Details: dose 10 mg/kg, route oral. To be noted: read-out: Drug uptake. The format is ADME, organism-based.
Data set [7] is described as follows: Plasma concentration in rat at 10 mg/kg, po after 1.5 hrs. It is filed as ADME, organism-based. Details: dose 10 mg/kg, route oral.
The subject of data set [8] is Mus musculus. Put plainly: Spontaneous locomotor activity in po dosed C57BL/6J mouse assessed as reversal of LY-354740-induced hypoactivity. The format is functional.
Data set [9] in a line: Clearance in rat microsomes. The format is ADME, Liver, Microsome.
The target of data set [10] is Cytochrome P450 3A4 (Homo sapiens, UniProt P08684). Put plainly: Inhibition of CYP3A4. The format is ADME.
Chain of Cytochrome P450 3A4 (P08684 whole entry): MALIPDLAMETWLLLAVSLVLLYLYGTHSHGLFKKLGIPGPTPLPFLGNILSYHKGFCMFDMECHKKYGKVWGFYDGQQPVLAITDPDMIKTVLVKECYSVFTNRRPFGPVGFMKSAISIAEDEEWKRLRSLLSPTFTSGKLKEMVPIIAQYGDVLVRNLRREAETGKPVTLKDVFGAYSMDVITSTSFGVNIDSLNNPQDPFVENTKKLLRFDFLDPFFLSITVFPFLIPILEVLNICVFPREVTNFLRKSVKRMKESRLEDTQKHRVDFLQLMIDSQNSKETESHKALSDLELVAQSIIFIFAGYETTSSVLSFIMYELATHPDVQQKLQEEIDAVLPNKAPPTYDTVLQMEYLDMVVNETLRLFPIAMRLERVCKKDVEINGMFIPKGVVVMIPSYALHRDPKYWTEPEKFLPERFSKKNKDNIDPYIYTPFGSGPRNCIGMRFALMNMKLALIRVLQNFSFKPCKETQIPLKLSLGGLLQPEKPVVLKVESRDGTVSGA
Data set [11] can be described thus: Ratio of drug level in cerebrospinal fluid to plasma at 10 mg/kg, po after 1.5 hrs. The format is ADME, organism-based, CSF/Plasma. Details: dose 10 mg/kg, route oral. To be noted: rat.
The nature of data set [12]: Binding affinity to ionotropic glutamate receptor.
Data set [13] in a line: Binding affinity to GABAA receptor.

Calls of active or inactive are those of the source. The rule behind the calls is not given here.

Chain of Metabotropic glutamate receptor 3 (P31422 whole entry): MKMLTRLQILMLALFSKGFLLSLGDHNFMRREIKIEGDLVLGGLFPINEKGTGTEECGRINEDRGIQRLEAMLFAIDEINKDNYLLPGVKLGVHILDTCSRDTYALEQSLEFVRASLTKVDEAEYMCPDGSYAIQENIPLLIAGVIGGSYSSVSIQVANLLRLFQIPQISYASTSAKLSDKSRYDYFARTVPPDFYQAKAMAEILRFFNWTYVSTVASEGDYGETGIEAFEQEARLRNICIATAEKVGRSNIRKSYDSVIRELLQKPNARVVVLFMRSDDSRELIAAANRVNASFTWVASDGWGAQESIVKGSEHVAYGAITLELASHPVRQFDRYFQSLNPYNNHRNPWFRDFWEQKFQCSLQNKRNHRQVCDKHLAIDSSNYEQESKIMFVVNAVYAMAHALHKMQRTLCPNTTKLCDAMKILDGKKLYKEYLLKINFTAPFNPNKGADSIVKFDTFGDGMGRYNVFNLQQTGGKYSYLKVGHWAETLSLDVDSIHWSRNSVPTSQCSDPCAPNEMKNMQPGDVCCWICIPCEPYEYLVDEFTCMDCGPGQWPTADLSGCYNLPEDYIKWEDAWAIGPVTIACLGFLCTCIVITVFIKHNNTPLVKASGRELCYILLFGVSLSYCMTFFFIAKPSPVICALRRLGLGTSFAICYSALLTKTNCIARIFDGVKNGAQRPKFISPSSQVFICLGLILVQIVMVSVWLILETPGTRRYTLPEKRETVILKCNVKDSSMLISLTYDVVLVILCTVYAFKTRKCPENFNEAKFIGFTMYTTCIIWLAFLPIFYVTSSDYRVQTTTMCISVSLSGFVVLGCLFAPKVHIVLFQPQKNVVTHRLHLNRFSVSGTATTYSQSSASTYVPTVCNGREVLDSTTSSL
T1 sequence (P31421 whole entry): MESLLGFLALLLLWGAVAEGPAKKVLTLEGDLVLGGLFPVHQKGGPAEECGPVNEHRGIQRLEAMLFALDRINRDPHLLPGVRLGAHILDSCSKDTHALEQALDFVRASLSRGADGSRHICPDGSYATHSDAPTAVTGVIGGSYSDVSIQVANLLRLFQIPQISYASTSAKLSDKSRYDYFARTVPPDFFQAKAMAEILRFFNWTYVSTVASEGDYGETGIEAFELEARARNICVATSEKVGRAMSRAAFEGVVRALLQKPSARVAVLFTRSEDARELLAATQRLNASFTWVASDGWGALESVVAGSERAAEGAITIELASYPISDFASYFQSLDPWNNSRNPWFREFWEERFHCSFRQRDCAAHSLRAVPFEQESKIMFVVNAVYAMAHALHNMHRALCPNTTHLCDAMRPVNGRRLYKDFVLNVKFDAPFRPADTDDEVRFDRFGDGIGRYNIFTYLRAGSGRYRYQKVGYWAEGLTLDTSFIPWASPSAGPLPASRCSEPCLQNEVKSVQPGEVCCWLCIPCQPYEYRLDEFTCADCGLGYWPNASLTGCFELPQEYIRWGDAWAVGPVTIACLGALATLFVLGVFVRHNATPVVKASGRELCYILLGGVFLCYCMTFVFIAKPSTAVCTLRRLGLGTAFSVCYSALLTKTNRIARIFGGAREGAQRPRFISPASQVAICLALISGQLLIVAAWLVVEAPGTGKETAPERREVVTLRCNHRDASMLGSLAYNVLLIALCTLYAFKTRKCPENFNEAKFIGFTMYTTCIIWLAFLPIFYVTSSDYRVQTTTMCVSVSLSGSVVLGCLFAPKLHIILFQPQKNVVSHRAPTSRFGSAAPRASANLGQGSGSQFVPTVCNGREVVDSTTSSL

For the compound `O=C1CC(c2cccc(-n3ccnc3)c2)=Nc2ccc(-c3ccccc3)cc2N1`, the IC50 – broadly, the concentration at which inhibition is half-maximal – in data set [1] was 47 nM; in data set [2], 39 nM.
With `CN(C)c1cc2c(cc1C(F)(F)F)NC(=O)CC(c1cccc(-n3ccnn3)c1)=N2`, the IC50 in data set [1] was 184 nM; in [2] it was 38 nM.
Consider `CC(C)CN(C)c1cc2c(cc1C(F)(F)F)NC(=O)CC(c1cccc(-n3ccnn3)c1)=N2`, for which the IC50 in data set [1] came to 14 nM; in data set [2], 11 nM.
In [2], `O=C1CC(c2cccc(-n3ccnn3)c2)=Nc2ccc(C(F)(F)F)cc2N1` displayed an IC50 of 92 nM.
Turning to `O=C1CC(c2cccc(-n3ccnc3)c2)=Nc2ccc(-c3ccccc3F)cc2N1`, the IC50 in [3] amounted to 33 nM; in data set [1], 27 nM; in data set [5], 11 nM; in data set [2], 12 nM. The Kp (usually tissue or fluid exposure divided by exposure in the circulation) at 1.5 h in [4] is 0.5. For the same compound, the results for the concentration at 1.5 h in [6] and in [7] were 1340 ng/mL and 2660 ng/mL, respectively. In addition, the median effective dose (ED50) (commonly the midpoint of the dose-response relation) in data set [8] was 12.5 mg/kg.
As to `Cc1cc2c(cc1C(F)(F)F)NC(=O)CC(c1cccc(-n3ccnc3)c1)=N2`, the IC50 was 19 nM in data set [1] and 12 nM in data set [2].
As to `O=C1CC(c2cccc(-n3ccnc3)c2)=Nc2ccc(C3CC3)cc2N1`, the 50% inhibitory concentration (IC50) in [2] amounted to 210 nM.
For the compound `CCOc1cc2c(cc1C(F)(F)F)NC(=O)CC(c1cccc(-n3ccnn3)c1)=N2`, the IC50 in data set [1] worked out at 34 nM; in data set [2] it was 7 nM.
With `O=C1CC(c2cccc(-n3ccnc3)c2)=Nc2ccc(-c3cc(F)ccc3F)cc2N1`, the IC50 stood at 17 nM in data set [1] and 7 nM in data set [2].
With `O=C1CC(c2cccc(-n3ccnn3)c2)=Nc2ccc(Cl)cc2N1`, the IC50 in data set [2] is 60 nM.
As for `O=C1CC(c2cccc(-n3ccnn3)c2)=Nc2cc(Cl)c(C(F)(F)F)cc2N1`, the figures for the IC50 in [1] and in [2] were 116 nM and 27 nM, respectively.
Consider `CN(C)c1cc2c(cc1C(F)(F)F)NC(=O)CC(c1cccc(-n3ccnc3)c1)=N2`, for which the figures for the IC50 in data set [1] and in [2] were 52 nM and 9 nM, respectively.
On to `O=C1CC(c2cccc(-n3ccnn3)c2)=Nc2ccc(C(F)F)cc2N1`, for which the IC50 in [2] turned out to be 608 nM.
Regarding `COc1cc2c(cc1C(F)(F)F)NC(=O)CC(c1cccc(-n3ccnn3)c1)=N2`, the IC50 came out at 74 nM in data set [1] and 29 nM in [2].
As for `CCc1cc2c(cc1C(F)(F)F)NC(=O)CC(c1cccc(-n3ccnc3)c1)=N2`, the results for the IC50 in [1] and in data set [2] were 10 nM and 4 nM, respectively.
Consider `CC(C)CNc1cc2c(cc1C(F)(F)F)NC(=O)CC(c1cccc(-n3ccnc3)c1)=N2`, for which the IC50 in [1] came out at 73 nM; in data set [2], 19 nM.
With `O=C1CC(c2cccc(-n3ccnn3)c2)=Nc2ccc(-c3cc(F)ccc3F)cc2N1`, the IC50 in data set [1] is 18 nM; in [2], 17 nM.
Consider `Cc1cc2c(cc1C(F)(F)F)NC(=O)CC(c1cccc(-n3ccnn3)c1)=N2`, for which the values for the IC50 in [1] and in data set [2] were 39 nM and 9 nM, respectively.
The compound `O=C1CC(c2cccc(-n3ccnc3)c2)=Nc2ccc(-c3cccc(F)c3)cc2N1` came in with an IC50 in data set [2] of 25 nM.
`O=C1CC(c2cccc(-n3ccnc3)c2)=Nc2cc(O)c(-c3ccccc3F)cc2N1`: the IC50 came to 122 nM in [3], 35 nM in data set [5] and 22 nM in [2]. In addition, the CLint scaled (commonly the capacity of the preparation to metabolise the compound, expressed as a volume cleared per time) in data set [9] stood at 100 mL/min/kg.
For the compound `O=C1CC(c2cccc(-n3ccnc3)c2)=Nc2cc(O)c(C#Cc3ccc(F)cc3)cc2N1`, the IC50 in data set [5] stood at 24 nM.
As for `O=C1CC(c2cccc(-n3ccnc3)c2)=Nc2cc(Cl)c(C(F)(F)F)cc2N1`, the IC50 came out at 15 nM in data set [1] and 17 nM in [2].
For `O=C1CC(c2cccc(-n3ccnn3)c2)=Nc2ccc(-c3ccc(F)cc3)cc2N1`, the half-inhibitory concentration (IC50) came out at 36 nM in data set [1] and 31 nM in data set [2].
For the compound `O=C1CC(c2cccc(-n3ccnc3)c2)=Nc2ccc(-c3ccc(F)cc3)cc2N1`, the IC50 in data set [3] was found to be 17 nM; in data set [1], 24 nM; in data set [5] it was 299 nM; in [2] it was 17 nM.
For `O=C1CC(c2cccc(-n3ccnn3)c2)=Nc2ccc(OCC(F)(F)F)cc2N1`, the IC50 in [2] stood at 70 nM.
`O=C1CC(c2cccc(-n3ccnn3)c2)=Nc2ccc(-c3ccccc3F)cc2N1`: the IC50 in data set [10] worked out at 4.3 µM; in [3] it was 42 nM; in data set [1], 37 nM; in data set [5] it was 22 nM; in [2], 16 nM. Further, the values for the concentration ratio (Kp) at 1.5 h in data set [11] and in [4] were 0.5 and 0.9, respectively. The outcome in data set [12] and in [13] was inactive. Further, the concentration at 1.5 h in data set [6] is 1060 ng/mL; in data set [7], 1420 ng/mL. Moreover, the median effective dose (ED50) in data set [8] is 3.3 mg/kg.
With `CC(C)CNc1cc2c(cc1C(F)(F)F)NC(=O)CC(c1cccc(-n3ccnn3)c1)=N2`, the IC50 in data set [1] was determined as 268 nM; in data set [2] it was 42 nM.
Regarding `O=C1CC(c2cccc(-n3ccnc3)c2)=Nc2ccc(C(F)(F)F)cc2N1`, the IC50 in [2] came out at 43 nM.
Consider `O=C1CC(c2cccc(-n3ccnn3)c2)=Nc2ccc(Br)cc2N1`, for which the half-inhibitory concentration (IC50) in data set [2] worked out at 130 nM.
Compound `CC(C)c1ccc2c(c1)NC(=O)CC(c1cccc(-n3ccnn3)c1)=N2` came in with an IC50 in data set [2] of 466 nM.
Compound `O=C1CC(c2cccc(-n3ccnc3)c2)=Nc2ccc(Br)cc2N1` returned an IC50 in [2] of 72 nM.

Source of the values: ChEMBL document CHEMBL1144793, “Synthesis and characterization of 1,3-dihydro-benzo[b][1,4]diazepin-2-one derivatives: Part 3. New potent non-competitive metabotropic glutamate receptor 2/3 antagonists” (Bioorg Med Chem Lett, 2008).
